ChEMBL document CHEMBL3137386, “DNDi T. cruzi fenarimol series dataset from which preclinical candidate EPL-BS1246 was identified (see also related datasets CHEMBL2448688 and CHEMBL3137440)”
≈ marks a conversion by molar mass, not a printed value. Where “and” joins values, the source holds several entries; their conditions need not be identical. Equal values may be shown once.

Key:
[1] = (§1) DNDI: Metabolism; type: ADME, Microsome; details: human, microsomes; for hepatic extraction ratio: read-out: EH
[2] = (§2) DNDI: Cytotoxicity against L-6 rat myoblasts from skeletal muscle; type: toxicity, cell-based, Muscle tissue, L6; details: rat, L6 rat skeletal muscle myoblasts
[3] = DNDI: Solubility in 0.01M HCl at pH 2 determined by nephelometry; type: physicochemical; details: 0.01 M HCl
[4] = system: Trypanosoma brucei rhodesiense; assay: DNDI: HAT in vitro; type: functional, organism-based; details: ATCC 30027
[5] = system: Trypanosoma cruzi; assay: (§3) DNDI: Chagas in vitro; type: functional, Tulahuen C4 (LacZ)
[6] = target: T1, Cytochrome P450 3A4 (Homo sapiens, UniProt P08684); assay: (§4) DNDI: CYP Inhibition; type: ADME
T1 sequence (P08684 whole entry): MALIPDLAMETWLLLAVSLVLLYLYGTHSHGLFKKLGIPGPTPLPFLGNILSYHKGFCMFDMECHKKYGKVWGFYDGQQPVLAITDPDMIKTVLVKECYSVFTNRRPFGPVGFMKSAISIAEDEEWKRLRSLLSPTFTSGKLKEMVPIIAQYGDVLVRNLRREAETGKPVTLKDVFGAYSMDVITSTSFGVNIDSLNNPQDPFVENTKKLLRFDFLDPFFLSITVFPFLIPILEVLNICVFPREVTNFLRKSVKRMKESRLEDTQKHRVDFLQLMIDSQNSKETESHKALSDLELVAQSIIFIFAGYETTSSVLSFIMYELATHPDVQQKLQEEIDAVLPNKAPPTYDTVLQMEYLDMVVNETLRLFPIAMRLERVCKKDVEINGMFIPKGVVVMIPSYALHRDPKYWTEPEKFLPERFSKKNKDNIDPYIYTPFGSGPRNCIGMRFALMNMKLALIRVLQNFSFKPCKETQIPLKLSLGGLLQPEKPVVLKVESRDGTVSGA

[7] = DNDI: Lipophilicity (gLogD) at pH 7.4; type: physicochemical; details: buffer
[8] = DNDI: Lipophilicity (gLogD) at pH 3; type: physicochemical; details: buffer
[9] = DNDI: Lipophilicity (s.f. LogD water); type: physicochemical
[10] = (§5) DNDI: Solubility, 24 hour, Isotonic phos buffer - pH 2; type: physicochemical; details: isotonic phosphate buffer, read-out: Equilibrium
[11] = (§6) DNDI: Solubility, 24 hour, FaSSIF, 37C; type: physicochemical; details: read-out: Equilibrium
[12] = DNDI: Lipophilicity (s.f. LogD) at pH 5; type: physicochemical; details: buffer
[13] = target: T1, Cytochrome P450 3A4; assay: as §4; type: ADME; remark: listed apart in the source
[14] = DNDI: Protein binding in dog plasma; type: ADME, Canis lupus familiaris, 9615; details: read-out: % bound (converted)
[15] = DNDI: Lipophilicity (s.f. LogD) at pH 7.4; type: physicochemical; details: buffer
[16] = as §1; type: ADME, Canis lupus familiaris, 9615, Microsome; details: dog, microsomes
[17] = DNDI: Protein binding in mouse plasma; type: ADME, 10090; details: read-out: % bound (converted)
[18] = system: L6; assay: as §2; type: toxicity, cell-based, Muscle tissue; details: l6
[19] = DNDI: Protein binding in rat plasma; type: ADME, 10116; details: read-out: % bound (converted)
[20] = DNDI: Protein binding 10% serum RPMI; type: ADME; details: RPMI with 10% serum; read-out: % bound (converted)
[21] = as §6; type: physicochemical; details: read-out: Equilibrium; remark: listed apart in the source
[22] = DNDI: Protein binding in human liver microsomes; type: ADME; details: read-out: % bound (converted)
[23] = DNDI: Lipophilicity (s.f. LogD) at pH 2; type: physicochemical; details: buffer
[24] = target: T1, Cytochrome P450 3A4; assay: as §4; type: ADME; remark: listed apart in the source
[25] = DNDI: Solubility, 24 hour, FaSSIF buffer - pH 6.5. 37C; type: physicochemical; details: read-out: Equilibrium
[26] = as §1; type: ADME, 10116, Microsome; details: rat, microsomes
[27] = DNDI: pKa; type: physicochemical
[28] = as §5; type: physicochemical; details: isotonic phosphate buffer, read-out: Equilibrium; remark: listed apart in the source
[29] = DNDI: Solubility, 24 hour, FaSSIF buffer - pH 5.8, 37C; type: physicochemical; details: read-out: Equilibrium
[30] = system: Trypanosoma cruzi; assay: as §3; type: functional, organism-based, Tulahuen C4 (LacZ)
[31] = as §1; type: ADME, 10090, Microsome; details: mouse, microsomes
[32] = DNDI: Protein binding in human plasma; type: ADME; details: read-out: % bound (converted)
[33] = target: T1, Cytochrome P450 3A4; assay: as §4; type: ADME; remark: listed apart in the source
[34] = DNDI: Solubility, 24 hour, SGF - pH 1, 37C; type: physicochemical; details: read-out: Equilibrium
[35] = DNDI: Solubility in phosphate buffer at pH 6.5 determined by nephelometry; type: physicochemical
[36] = Trypanosoma cruzi, Tulahuen C4 (LacZ)

In the case of CS(=O)(=O)c1ccc(N2CCN(C(=O)C(c3ccc(C#N)cc3)c3cccnc3)CC2)cc1 (stereo not given), the Clint [1] is reported as 15 µL/min/mg and 10 µL/min/mg and < 7 µL/min/mg, the EH [1] is reported as 0.36 and < 0.28 and the “t (1 / 2)” value [1] is reported as 113 min and 169 min and > 250 min. The hepatic extraction ratio [1] was 0.46, the IC50 [2] was > 100000 nM and the solubility kinetic [3] was > 100 µg/mL. The IC50 [4] was > 10000 nM, the IC90 [5] was > 100 nM and 29.1 nM and the IC50 [6] was > 20000 nM. For the same molecule, the chromatographic logD [7] was 2.3 and the chromatographic logD [8] was 1.8.
In the case of O=C(C(c1ccc(Cl)cc1)c1cccnc1)N1CCN(c2ccc(C(F)(F)F)cc2)CC1 (stereo not given), the logD [9] is reported as 5.44, the solubility thermodynamic at 24 h [10] is reported as < 1 µg/mL and the solubility thermodynamic at 24 h [11] is reported as 75.9 µg/mL (≈ 165 µM). The logD [12] was 5.47, the half-life [1] was 85 min and the microsomal CLint [1] was 20 µL/min/mg. It also gave a hepatic extraction ratio [1] of 0.53, an IC50 [13] of 7400 nM and a fraction unbound [14] of 0.012. For the same molecule, the logD [15] was 5.54, the half-life [16] was 130 min and the microsomal CLint [16] was 13 µL/min/mg. It also gave a hepatic extraction ratio ([16]; read-out: EH) of 0.38, a fraction unbound [17] of 0.014 and an IC50 [2] of 37700 nM. It also gave an IC50 [18] of 42400 nM, a fraction unbound [19] of 0.027 and a fraction unbound [20] of 0.076. The solubility kinetic [3] was > 100 µg/mL, the IC50 [4] was > 10000 nM and the solubility thermodynamic at 24 h [21] was 1.3 µg/mL (≈ 2.83 µM). It also gave a fraction unbound [22] of 0.023, a logD [23] of 2.71 and an IC50 [24] of 20000 nM. For the same molecule, the solubility thermodynamic at 24 h [25] was < 1 µg/mL, the half-life [26] was 46 min and the microsomal CLint [26] was 38 µL/min/mg. For the same molecule, the hepatic extraction ratio ([26]; read-out: EH) was 0.55, the pKa [27] was 2.62 and the IC90 [5] was 10 nM and 47.5 nM. The solubility thermodynamic at 24 h [28] was 127 µg/mL (≈ 276 µM), the solubility thermodynamic at 24 h [29] was < 1 µg/mL and the IC50 [30] was 7 nM. It also gave an IC50 [30, 36] of 10 nM, a half-life [31] of 30 min and a microsomal CLint [31] of 59 µL/min/mg. It also gave a hepatic extraction ratio ([31]; read-out: EH) of 0.72, a fraction unbound [32] of 0.025 and a chromatographic logD [7] of 4.5. It also gave a chromatographic logD [8] of 4.1, an IC50 [33] of 1200 nM and a solubility thermodynamic at 24 h [34] of 1500 µg/mL (≈ 3260 µM).
For O=C(c1ccccc1)N1CCN(C(=O)C(c2ccc(Cl)cc2)c2cccnc2)CC1 (stereo not given), the IC50 [2] was > 100000 nM, the IC50 [4] was > 10000 nM and the IC90 [5, 36] was > 100 nM. For the same molecule, the IC50 [30, 36] was 49.5 nM.
With O=C(C(c1ccc(Cl)cc1)c1cccnc1)N1CCN(c2nccs2)CC1 (stereo not given) the IC50 [2] was > 100000 nM, the IC50 [4] was > 10000 nM and the IC90 [5, 36] was > 100 nM. The IC50 [30, 36] was 51 nM.
With CC(C)CN1CCN(C(=O)C(c2ccc(Cl)cc2)c2cccnc2)CC1 (stereo not given) the IC50 [2] was > 100000 nM, the IC50 [4] was > 10000 nM and the IC90 [5, 36] was > 100 nM. The IC50 [30, 36] was 65 nM.
With COCCN1CCN(C(=O)C(c2ccc(Cl)cc2)c2cccnc2)CC1 (stereo not given) the IC50 [2] was > 100000 nM, the IC50 [4] was > 10000 nM and the IC90 [5, 36] was > 100 nM. The IC50 [30, 36] was > 100 nM.
In the case of O=C(C(c1ccc(Cl)cc1)c1cccnc1)N1CCN(Cc2cccc(C(F)(F)F)c2)CC1 (stereo not given), the IC50 [4] is reported as > 10000 nM, the IC90 [5, 36] is reported as > 100 nM and the IC50 [30, 36] is reported as 14.8 nM.
In the case of N#Cc1ccc(C(C(=O)N2CCN(c3ccc(C(F)(F)F)cc3)CC2)c2cccnc2)cc1 (stereo not given), the Clint [1] is reported as 42 µL/min/mg and 38 µL/min/mg, the EH [1] is reported as 0.68 and 0.7 and the half-life [1] is reported as 50 min. The microsomal CLint [1] was 35 µL/min/mg, the “t (1 / 2)” value [1] was 41 min and 45 min and the hepatic extraction ratio [1] was 0.66. The IC50 [2] was 73800 nM, the IC50 [18] was 54700 nM and the solubility kinetic [3] was > 100 µg/mL. For the same molecule, the IC50 [4] was > 10000 nM, the IC90 [5] was 27 nM and 71.5 nM and > 100 nM and the IC50 [6] was > 20000 nM. The IC50 [30] was 10 nM and 12 nM and 67.5 nM and the chromatographic logD [8] was 3.5.
For O=C(C(c1ccc(Cl)cc1)c1cccnc1)N1CCN(c2ccc(C(F)(F)F)nc2)CC1 (stereo not given), the Clint [1] was 36 µL/min/mg and 61 µL/min/mg, the EH [1] was 0.77 and 0.7 and the half-life [1] was 41 min. The microsomal CLint [1] was 42 µL/min/mg, the “t (1 / 2)” value [1] was 49 min and 28 min and the hepatic extraction ratio [1] was 0.67. The IC50 [2] was 66800 nM, the solubility kinetic [3] was > 100 µg/mL and the IC50 [4] was > 10000 nM. The IC50 [24] was 20000 nM, the IC90 [5] was > 100 nM and 1030 nM and the IC50 [6] was > 20000 nM. It also gave a chromatographic logD [8] of 3.2.
With N#Cc1ccc(C(C(=O)N2CCN(c3ccc(C(F)(F)F)nc3)CC2)c2cccnc2)cc1 (stereo not given) the Clint [1] was 22 µL/min/mg and 21 µL/min/mg, the EH [1] was 0.56 and 0.54 and the half-life [1] was 144 min. For the same molecule, the microsomal CLint [1] was 12 µL/min/mg, the “t (1 / 2)” value [1] was 77 min and 81 min and the hepatic extraction ratio [1] was 0.4. For the same molecule, the IC50 [2] was > 100000 nM, the solubility kinetic [3] was > 100 µg/mL and the IC50 [4] was > 10000 nM. The IC90 [5] was 81.5 nM, the IC90 [5, 36] was > 100 nM and the IC50 [6] was > 20000 nM. The IC50 [30] was 55 nM and > 100 nM and 20.5 nM, the chromatographic logD [7] was 3 and the solubility kinetic [35] was 12.5 µg/mL (≈ 27.7 µM). The chromatographic logD [8] was 2.5.
